{"source": "patent US20200375929A1", "about": "“METHODS AND COMPOSITIONS FOR THE TREATMENT OF DISEASES ASSOCIATED WITH CANCER, INFLAMMATION, OR IMMUNE RESPONSE” (Washington University, priority 2017, published 2020)", "key": {"[1]": {"test_system": "LY1 and LY7 (GCB) cell lines", "assay": "DLBCL cell viability, resazurin assay, GCB subtype", "type": "cell-based", "conditions": "LY1 and LY7, 4 days, refreshed daily; DI 125-250 μM"}, "STAT3": {"test_system": "STAT3", "assay": "STAT3 activation in IL17A-stimulated HaCat cells (western blot)", "type": "cell-based, human", "conditions": "DI 12 h"}, "BMDMs": {"test_system": "BMDMs", "assay": "Nascent protein synthesis (Click chemistry labeling) and proteomic profiling in BMDMs", "type": "cell-based, mouse", "conditions": "DI, LPS 1 h, metabolic labeling, proteomics", "procedure": "BMDMs were plated 2×10^6 cells per well in 6-well plates. Cells were either (1) treated with DI (250 μM) for 12 h and then stimulated with LPS (100 ng/mL) for 1 h, or (2) only stimulated with LPS (100 ng/mL) for 1 h, or (3) only treated with DI (250 μM) for 12 h, or (4) neither treated with DI nor LPS. Cells were then washed 3× with PBS and lysed in 200 μL of urea buffer (8 M urea, 75 mM NaCl, 50 mM Tris pH 8.0, 1 mM EDTA). Lysates were then cleared by centrifugation at 20,000 g and protein concentrations were determined by BCA assay (Pierce). 15 μg of total protein per sample were processed further. Disulfide bonds were reduced with 5 mM dithiothreitol and cysteines were subsequently alkylated with 10 mM iodoacetamide. Samples were diluted 1:4 with 50 mM Tris/HCl (pH 8.0) and sequencing grade modified trypsin (Promega) was added in an enzyme-to-substrate ratio of 1:50. After 16 h of digestion, samples were acidified with 1% formic acid (final concentration). […]\nBMDMs were grown in 12-well plate, […] per well and treated with DI (250 μM) for 10 h. […] Total protein concentration was determined using RC/DC™ Protein Assay (Biorad). […] Proteins were separated on 4%-20% polyacrylamide gradient gels (BioRad) and biotinylated proteins were detected by western blot with streptavidin-HRP conjugate (1:1000, #554066, BD Pharmingen). […]"}, "IκBζ": {"test_system": "IκBζ", "assay": "IL-17A-induced IκBζ in primary human keratinocytes (western blot)", "type": "cell-based", "conditions": "DI 12 h, IL-17A 100 ng/ml", "procedure": "Cells were lysed in RIPA Lysis Buffer System (Santa Cruz) and heat-denatured at 95° C. for 5 min in reducing sample buffer (BioRad). Proteins were separated on 4%-20% polyacrylamide gradient gels (BioRad) and transferred onto 0.45 μm pore size PVDF membranes (Millipore). Non-specific binding was blocked with 5% skim milk (or 5% BSA when phospho-proteins were analyzed), and membranes were probed with primary antibodies specific to Nrf2 (#12721), HO-1 (#70081), IκBζ (mouse specific, #93726), IκBζ(#9244), ATF3 (#D2Y5W), IRAK1 (#4504; sensitivity of IRAK1 detection diminishes upon IRAK1 K63 ubiquitination), phospho-IKK (Ser176/180, #2697), p62/SQSTM1 (#5114), phospho-eIF2α (Ser51, #9721), eIF2α (#5324) from Cell Signaling; GAPDH (sc-25778), IκBα (sc-1643), ATF3 (sc-188), SDHA (sc-166909) from Santa Cruz; NQO1 (ab28947) from Abeam, followed by incubation with anti-rabbit-HRP (1:10,000; sc-2030) or anti-mouse-HRP (1:10,000; sc-2031) from Santa Cruz and Clarity western ECL substrate (Bio-Rad). Membranes were exposed to X-Ray films (Research Products International Corp.) and developed using SRX-101A film processor (Konica Minolta). GAPDH run on the same blot was used as loading control. After scanning of original films image brightness of some blots was adjusted and bands were cropped using ImageJ. Densitometry was performed using ImageJ. […]"}}}
{"smiles": "C=C(CC(=O)OC)C(=O)OC", "note": "[DI, dimethyl itaconate]", "values": [{"measurement": "growth / toxicity, GCB DLBCL", "setting": "[1]", "result": "not GCB cells"}, {"measurement": "STAT3 activation", "setting": "STAT3", "result": "effective to inhibit STAT3 activation"}, {"measurement": "global protein synthesis", "setting": "BMDMs", "result": "did not affect protein synthesis globally"}, {"measurement": "IL-17-induced IκBζ induction", "setting": "IκBζ", "result": "inhibited"}]}
